Reference: paper PMC12396409, “Screening and hit evaluation of a microbial metabolite library against the pathogenic Plasmodium falciparum and Toxoplasma gondii parasites” (International Journal for Parasitology: Drugs and Drug …, 2025)
Read-outs that look alike come from different tables or passages of the source.

Assays:
[1] = system: T. gondii RH strain (RH-Tub-eYFP) tachyzoites; experiment: microbe, parasite or virus in culture; type: cell-based, Toxoplasma gondii; conditions: 72 h, 72 h; for percent parasite growth at 2 µg/mL: Toxoplasma gondii, parasite screen 2 μg/mL
[2] = system: P. falciparum 3D7 parasites; experiment: P. falciparum growth inhibition assay, 1-cycle (72 h treatment), SYBR DNA staining (library screen at 2 μg/mL and dose-response); type: cell-based, Plasmodium falciparum; conditions: for activity at 2 µg/mL: Plasmodium falciparum, 3D7, 72 h, parasite screen 2 μg/mL
[3] = system: P. falciparum 3D7 parasites; experiment: P. falciparum growth inhibition assay, 2-cycle (120 h treatment), delayed-death screen and dose-response; type: cell-based, Plasmodium falciparum; conditions: for activity at 2 µg/mL: Plasmodium falciparum, 3D7, 120 h, parasite screen 2 μg/mL
[4] = T. gondii RH, library screen at 2 μg/mL, % growth, replicate 1
[5] = T. gondii RH, library screen at 2 μg/mL, % growth, replicate 2
[6] = P. falciparum 3D7, 72 h, library screen at 2 μg/mL, % growth, replicate 1
[7] = P. falciparum 3D7, 72 h, library screen at 2 μg/mL, % growth, replicate 2
[8] = P. falciparum 3D7, 120 h, library screen at 2 μg/mL, % growth, replicate 1
[9] = P. falciparum 3D7, 120 h, library screen at 2 μg/mL, % growth, replicate 2
[10] = T. gondii, screen at 2 μg/mL, replicate 1
[11] = T. gondii, screen at 2 μg/mL, replicate 2
[12] = P. falciparum, 72 h, screen at 2 μg/mL, replicate 1
[13] = P. falciparum, 72 h, screen at 2 μg/mL, replicate 2
[14] = P. falciparum, 120 h, screen at 2 μg/mL, replicate 1
[15] = P. falciparum, 120 h, screen at 2 μg/mL, replicate 2
[16] = library screen at 2 μg/mL, % growth, replicate 1
[17] = library screen at 2 μg/mL, % growth, replicate 2
[18] = library screen at 2 μg/mL, 72 h, % growth, replicate 1
[19] = library screen at 2 μg/mL, 72 h, % growth, replicate 2
[20] = library screen at 2 μg/mL, 120 h, % growth, replicate 1
[21] = library screen at 2 μg/mL, 120 h, % growth, replicate 2

Molecule `COC1=C(N)C(=O)c2nc(-c3nc(C(=O)O)c(C)c(-c4ccc(OC)c(OC)c4O)c3N)ccc2C1=O` [Streptonigrin] has a percent parasite growth at 2 µg/mL ([1]; T. gondii, % growth, replicate 1, read-out: Tg_72h_%Growth_Rep1) of 3.6%, a percent parasite growth at 2 µg/mL ([1]; T. gondii, % growth, replicate 2, read-out: Tg_72h_%Growth_Rep2) of 2.59% and an activity at 2 µg/mL ([2]; P. falciparum, 72 h, % growth, replicate 1, read-out: Pf_72h_%Growth_Rep1) of 2.61%. It also gave an activity at 2 µg/mL ([2]; P. falciparum, 72 h, % growth, replicate 2, read-out: Pf_72h_%Growth_Rep2) of -8.29%, an activity at 2 µg/mL ([3]; P. falciparum, 120 h, % growth, replicate 1, read-out: Pf_120h_%Growth_Rep1) of 43.2% and an activity at 2 µg/mL ([3]; P. falciparum, 120 h, % growth, replicate 2, read-out: Pf_120h_%Growth_Rep2) of 6.18%.

For `O=c1cc(O)c2nccc3c4ccccc4n1c23` [BIA-H1963], the Tg_72h_%Growth_Rep1 [1, 4] was 127.63%, the Tg_72h_%Growth_Rep2 [1, 5] was 85.33% and the Pf_72h_%Growth_Rep1 [2, 6] was 88.88%. It also gave a Pf_72h_%Growth_Rep2 [2, 7] of 124.49%, a Pf_120h_%Growth_Rep1 [3, 8] of 105.89% and a Pf_120h_%Growth_Rep2 [3, 9] of 107.63%.

`CC(=O)O[C@H]1CC[C@]2(C)[C@H]3CC[C@]4(C)Oc5oc(C)cc(=O)c5C[C@H]4[C@]3(C)CC[C@H]2C1(C)C` [Chevalone C] showed a Tg_72h_%Growth_Rep1 [1, 10] of 84.01%, a Tg_72h_%Growth_Rep2 [1, 11] of 91.63% and a Pf_72h_%Growth_Rep1 [2, 12] of 92.41%. For the same molecule, the Pf_72h_%Growth_Rep2 [2, 13] was 79.15%, the Pf_120h_%Growth_Rep1 [3, 14] was 145.74% and the Pf_120h_%Growth_Rep2 [3, 15] was 96.88%.

Work on `CN1C(=O)c2ccccc2-n2c(nc3ccccc3c2=O)/C1=C\c1ccccc1` [Benzomalvin B] yielded a Tg_72h_%Growth_Rep1 [1, 16] of 108.53%, a Tg_72h_%Growth_Rep2 [1, 17] of 82.96% and a Mean ([2]; P. falciparum, 72 h, 2 μg/mL, mean of both replicates, growth (% of control)) of 40.89. It also gave a Pf_72h_%Growth_Rep1 [2, 18] of 1.98%, a Pf_72h_%Growth_Rep2 [2, 19] of 79.80% and a Pf_120h_%Growth_Rep1 [3, 20] of 2.26%. It also gave a Pf_120h_%Growth_Rep2 [3, 21] of 61.47%.

In the case of `CCOC(=O)c1c2ccocc-2oc1=O` [BIA-K1981], the Tg_72h_%Growth_Rep1 [1, 4] was 89.77%, the Tg_72h_%Growth_Rep2 [1, 5] was 96.78% and the Pf_72h_%Growth_Rep1 [2, 6] was 72.42%. It also gave a Pf_72h_%Growth_Rep2 [2, 7] of 90.55%, a Pf_120h_%Growth_Rep1 [3, 8] of 169.06% and a Pf_120h_%Growth_Rep2 [3, 9] of 89.57%.

For `CC[C@H](C)[C@H]1O[C@]2(C=C[C@@H]1C)C[C@@H]1C[C@@H](C/C=C(\C)[C@@H](O[C@H]3C[C@H](OC)[C@@H](O[C@H]4C[C@H](OC)[C@H](NC(C)=O)[C@H](C)O4)[C@H](C)O3)[C@@H](C)/C=C/C=C3\CO[C@@H]4[C@H](O)C(C)=C[C@@H](C(=O)O1)[C@]34O)O2` [Eprinomectin B1a, reference compound], the Tg_72h_%Growth_Rep1 [1, 16] was 139.55%, the Tg_72h_%Growth_Rep2 [1, 17] was 101.56% and the “1) Growth (%) at 72 h” value ([2]; P. falciparum, 2 μg/mL, 72 h) was 42.60%. The Pf_72h_%Growth_Rep1 [2, 18] was 53.90%, the Pf_72h_%Growth_Rep2 [2, 19] was 31.29% and the “3) Fold change (72 h/120 h)” value [3] was 2.2. The “2) Growth (%) at 120 h” value ([3]; P. falciparum, 2 μg/mL, 120 h) was 19.45%, the Pf_120h_%Growth_Rep1 [3, 20] was 26.03% and the Pf_120h_%Growth_Rep2 [3, 21] was 12.86%.

`C/C=C(\C)c1cc(O)c(C)c2c1Oc1cc(O)cc(C)c1C(=O)O2` [Unguinol] was tested, and the Tg_72h_%Growth_Rep1 [1, 10] was 147.94%, the Tg_72h_%Growth_Rep2 [1, 11] was 82.86% and the Pf_72h_%Growth_Rep1 [2, 12] was 95.05%. The Pf_72h_%Growth_Rep2 [2, 13] was 130.12%, the Pf_120h_%Growth_Rep1 [3, 14] was 111.35% and the Pf_120h_%Growth_Rep2 [3, 15] was 108.43%.

For `CC(C)c1ncc(Cc2ccccc2)[nH]c1=O` [Aureusimine B], the Tg_72h_%Growth_Rep1 [1, 16] was 82.28%, the Tg_72h_%Growth_Rep2 [1, 17] was 99.21% and the Pf_72h_%Growth_Rep1 [2, 18] was 102.22%. For the same molecule, the Pf_72h_%Growth_Rep2 [2, 19] was 85.03%, the Pf_120h_%Growth_Rep1 [3, 20] was 140.97% and the Pf_120h_%Growth_Rep2 [3, 21] was 94.84%.
